Data taken from patent publication US20220402948A1, “EGFR INHIBITOR, COMPOSITION AND PREPARATION METHOD THEREFOR” (BETTA PHARMACEUTICALS CO., LTD., priority 2019, published 2022).
pIC50: −log10 of the molar value. Where two headings read alike, the source gives them in different places.

Columns and labels:
A431 = A431 cell proliferation assay (CellTiter Glo, 72 hours); type: cell-based; conditions: Homo sapiens, A-431, 72 h; for pIC50: cell proliferation, A431, 72 hours, Table 2, read-out: A431 IC50
How it was run: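 Luminescence (CellTiter-Glo) after 72 h treatment gives viability, fitted by nonlinear regression to yield IC50. Cells seeded at 2000 per well; nine 3-fold concentrations from 1000 nM, DMSO final 0.1% (0.5% for certain compounds).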

[1] = biological target: Ba/F3 cells with EGFR Δ19del/T790M/C797S mutation gene stably overexpressed (Homo sapiens, UniProt P00533, T790M/C797S, cells depend on it, form not given); test: Ba/F3-Δ19del/T790M/C797S cell proliferation assay (CellTiter Glo, 72 hours); type: cell-based
How it was run: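 Ba/F3 cells stably overexpressing wild-type EGFR or EGFR Δ19del/T790M/C797S were seeded at 2000 cells/well and incubated 72 h with compound. Viability was read by CellTiter-Glo luminescence, and IC50 came from a four-parameter logistic fit of signal against log concentration.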

EGFR WT = EGFR WT (Homo sapiens, UniProt P00533); test: EGFR WT kinase test (mobility variation analysis, Caliper EZ Reader); type: biochemical; conditions: kinase enzymatic activity, Table 1
How it was run: (§1)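 Read-out is substrate-to-product conversion by mobility shift, stopped after incubation at room temperature with ATP and substrate, following a 10-minute room-temperature compound–enzyme pre-incubation. IC50 obtained by four-parameter variable-slope fitting of inhibition normalized between enzyme-free and uninhibited controls.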

[2] = biological target: Ba/F3-EGFR wild-type cell line (Homo sapiens, UniProt P00533); test: Ba/F3-EGFR wild-type cell proliferation assay (CellTiter Glo, 72 hours); type: cell-based; conditions: Table 2, read-out: EGFR WT IC50
Description: Cell line: Ba/F3 cells with EGFR Δ19del/T790M/C797S mutation gene stably overexpressed named Ba/F3-Δ119del/T90M/C797S, and A431 and Ba/F3-EGFR wild-type cell line.
a) Centrifuge the growth cells in logarithmic phase at 1000 rpm for 5 minutes, resuspend the cells in culture medium, and then count the cells;
b) Inoculate the cells into a 96-well cell culture plate with a density of 2000 cells/well;
b) Incubate cells in an incubator for another 72 hours.
a) Take out the 96-well cell culture plate and add 50 μl CTG reagent (CellTiter Glo kit, promega, Cat #G7573);
b) Shake the plate for 2 minutes and let cool at room temperature for 10 minutes;
c) Read luminous signal value with PerkinElmer reader,
Analysis of Experimental Data
The data were analyzed by GraphPad Prism 6.0 software to obtain the fitting curve of compound activity.
Y=Min+(Max−Min)/(1+10^((Log IC50−X)*slope));
X: Logarithm of compound concentration; Y: luminous signal.

EGFRΔ19del/T790M/C797S = EGFRΔ19del/T790M/C797S (Homo sapiens, UniProt P00533, T790M/C797S, form not given); test: EGFR Δ19del/T790M/C797S kinase test (mobility variation analysis, Caliper EZ Reader); type: biochemical; conditions: kinase enzymatic activity, Table 1
How it was run: as §1

IGF1R = IGF1R (Homo sapiens, UniProt P08069); test: IGF1R kinase test (mobility variation analysis, Caliper EZ Reader); type: biochemical; conditions: kinase enzymatic activity, Table 1; read-out: EGFR IGF1R IC50
How it was run: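 Mobility-shift readout of substrate conversion, normalised to positive (no compound) and negative (no kinase) controls, gives % inhibition and IC50 by four-parameter fit. Compounds, 3-fold dilutions over 10 concentrations starting at 3000 nM, preincubated 10 min with kinase before ATP/substrate start; room temperature.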

[3] = Table 2, read-out: EGFR Δ19del/T790M/C797S IC50

Chain of Ba/F3-EGFR wild-type cell line (P00533 whole entry, stated change not applied): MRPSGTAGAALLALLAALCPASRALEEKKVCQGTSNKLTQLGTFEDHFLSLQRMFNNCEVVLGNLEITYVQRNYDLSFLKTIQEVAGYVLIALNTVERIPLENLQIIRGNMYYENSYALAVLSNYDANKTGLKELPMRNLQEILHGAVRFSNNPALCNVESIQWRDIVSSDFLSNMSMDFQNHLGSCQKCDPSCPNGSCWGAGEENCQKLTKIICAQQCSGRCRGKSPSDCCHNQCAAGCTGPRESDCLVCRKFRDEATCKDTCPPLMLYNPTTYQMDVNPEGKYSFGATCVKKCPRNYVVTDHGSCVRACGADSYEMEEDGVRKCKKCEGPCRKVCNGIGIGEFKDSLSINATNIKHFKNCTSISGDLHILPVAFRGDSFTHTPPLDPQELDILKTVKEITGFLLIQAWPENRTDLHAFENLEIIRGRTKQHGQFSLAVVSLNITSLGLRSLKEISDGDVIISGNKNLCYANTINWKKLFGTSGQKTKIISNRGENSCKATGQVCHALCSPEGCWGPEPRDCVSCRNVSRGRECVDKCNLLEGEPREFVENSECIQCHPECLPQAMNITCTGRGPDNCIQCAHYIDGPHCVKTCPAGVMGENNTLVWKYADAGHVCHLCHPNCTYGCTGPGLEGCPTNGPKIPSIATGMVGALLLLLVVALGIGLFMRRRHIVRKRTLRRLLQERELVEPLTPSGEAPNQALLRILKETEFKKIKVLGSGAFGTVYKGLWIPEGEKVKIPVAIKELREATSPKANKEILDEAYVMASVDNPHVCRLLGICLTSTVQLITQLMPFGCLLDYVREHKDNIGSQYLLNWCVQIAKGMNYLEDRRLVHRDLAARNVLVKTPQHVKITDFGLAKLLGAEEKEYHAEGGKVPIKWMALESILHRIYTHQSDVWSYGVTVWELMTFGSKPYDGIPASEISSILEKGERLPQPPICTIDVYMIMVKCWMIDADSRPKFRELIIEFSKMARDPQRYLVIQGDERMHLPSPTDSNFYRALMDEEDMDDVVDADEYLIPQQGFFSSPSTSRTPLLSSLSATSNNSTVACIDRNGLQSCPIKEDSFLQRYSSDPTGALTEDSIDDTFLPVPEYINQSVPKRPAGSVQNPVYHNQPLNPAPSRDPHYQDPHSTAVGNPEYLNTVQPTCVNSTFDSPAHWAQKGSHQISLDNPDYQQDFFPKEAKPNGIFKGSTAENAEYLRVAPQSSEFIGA
Chain of Ba/F3 cells with EGFR Δ19del/T790M/C797S mutation gene stably overexpressed (P00533 with tags, fused parts or gaps DEL746-750/T790M/C797S, form open): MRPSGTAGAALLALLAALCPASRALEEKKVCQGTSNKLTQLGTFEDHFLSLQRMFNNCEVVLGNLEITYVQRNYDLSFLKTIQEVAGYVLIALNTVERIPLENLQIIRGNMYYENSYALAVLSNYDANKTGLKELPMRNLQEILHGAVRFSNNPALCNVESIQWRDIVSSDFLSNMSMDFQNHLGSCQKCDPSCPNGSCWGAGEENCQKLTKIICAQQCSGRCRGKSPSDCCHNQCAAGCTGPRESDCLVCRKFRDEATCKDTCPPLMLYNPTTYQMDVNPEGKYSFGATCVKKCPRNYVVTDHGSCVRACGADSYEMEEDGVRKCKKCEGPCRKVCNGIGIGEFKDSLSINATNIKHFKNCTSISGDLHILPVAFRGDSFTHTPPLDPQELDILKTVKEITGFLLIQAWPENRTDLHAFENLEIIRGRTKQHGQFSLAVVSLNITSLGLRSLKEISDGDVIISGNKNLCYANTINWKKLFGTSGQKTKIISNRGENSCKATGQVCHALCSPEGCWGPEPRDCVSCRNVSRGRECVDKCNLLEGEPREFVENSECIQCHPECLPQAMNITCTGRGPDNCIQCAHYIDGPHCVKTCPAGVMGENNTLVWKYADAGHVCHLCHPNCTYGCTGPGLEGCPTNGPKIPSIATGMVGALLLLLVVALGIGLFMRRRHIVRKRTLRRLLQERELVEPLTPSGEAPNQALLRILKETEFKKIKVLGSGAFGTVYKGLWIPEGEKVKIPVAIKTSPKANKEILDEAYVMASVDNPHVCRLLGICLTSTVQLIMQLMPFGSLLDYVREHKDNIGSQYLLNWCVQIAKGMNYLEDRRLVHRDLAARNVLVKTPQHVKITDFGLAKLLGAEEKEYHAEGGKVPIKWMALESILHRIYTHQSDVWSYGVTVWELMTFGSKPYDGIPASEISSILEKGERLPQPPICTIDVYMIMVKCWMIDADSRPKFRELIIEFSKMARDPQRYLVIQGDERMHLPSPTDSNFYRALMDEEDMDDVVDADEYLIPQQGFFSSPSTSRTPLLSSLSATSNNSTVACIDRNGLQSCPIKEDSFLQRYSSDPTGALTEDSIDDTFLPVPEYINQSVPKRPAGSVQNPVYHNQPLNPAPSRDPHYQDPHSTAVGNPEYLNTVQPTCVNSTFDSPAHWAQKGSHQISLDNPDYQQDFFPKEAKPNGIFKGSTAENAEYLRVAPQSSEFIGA
Chain of EGFRΔ19del/T790M/C797S (P00533 with tags, fused parts or gaps DEL746-750/T790M/C797S, form open): as above
Chain of IGF1R (P08069 31-1367, species assumed): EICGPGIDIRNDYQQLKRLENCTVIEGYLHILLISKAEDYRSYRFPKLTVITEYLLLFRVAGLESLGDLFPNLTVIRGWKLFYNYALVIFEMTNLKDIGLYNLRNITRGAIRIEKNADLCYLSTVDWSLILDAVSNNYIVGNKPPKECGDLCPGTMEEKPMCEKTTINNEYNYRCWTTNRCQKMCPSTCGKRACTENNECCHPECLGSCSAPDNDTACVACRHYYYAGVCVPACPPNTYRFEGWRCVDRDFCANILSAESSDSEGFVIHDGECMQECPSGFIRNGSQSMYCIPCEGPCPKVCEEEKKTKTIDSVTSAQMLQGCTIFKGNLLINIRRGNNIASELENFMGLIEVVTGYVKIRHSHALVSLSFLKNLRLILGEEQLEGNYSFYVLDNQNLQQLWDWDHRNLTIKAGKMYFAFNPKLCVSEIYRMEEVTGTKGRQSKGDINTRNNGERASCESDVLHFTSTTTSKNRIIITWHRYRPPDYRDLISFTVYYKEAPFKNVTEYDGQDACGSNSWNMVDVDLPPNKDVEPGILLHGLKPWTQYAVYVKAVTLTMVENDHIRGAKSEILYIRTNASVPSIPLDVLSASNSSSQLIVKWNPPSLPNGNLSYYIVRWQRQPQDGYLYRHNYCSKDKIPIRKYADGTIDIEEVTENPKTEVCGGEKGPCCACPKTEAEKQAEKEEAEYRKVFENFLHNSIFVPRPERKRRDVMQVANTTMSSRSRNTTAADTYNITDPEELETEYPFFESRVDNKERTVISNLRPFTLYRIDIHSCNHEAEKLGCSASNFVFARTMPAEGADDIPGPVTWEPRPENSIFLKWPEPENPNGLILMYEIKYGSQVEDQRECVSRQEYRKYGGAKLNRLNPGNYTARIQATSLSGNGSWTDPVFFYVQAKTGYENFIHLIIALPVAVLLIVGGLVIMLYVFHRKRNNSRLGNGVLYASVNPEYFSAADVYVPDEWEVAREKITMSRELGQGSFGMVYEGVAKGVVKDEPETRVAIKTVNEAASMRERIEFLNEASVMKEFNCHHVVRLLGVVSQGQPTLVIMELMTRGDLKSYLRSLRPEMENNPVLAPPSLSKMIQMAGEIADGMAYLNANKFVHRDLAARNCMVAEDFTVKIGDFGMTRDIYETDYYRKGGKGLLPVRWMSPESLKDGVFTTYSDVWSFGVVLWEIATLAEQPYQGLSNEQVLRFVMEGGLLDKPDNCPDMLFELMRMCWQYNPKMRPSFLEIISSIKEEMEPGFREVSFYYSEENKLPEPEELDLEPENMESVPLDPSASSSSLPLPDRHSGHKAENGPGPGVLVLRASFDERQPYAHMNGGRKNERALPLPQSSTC

pIC50 (A431) | GI50 [1, 3] [nM] | pIC50 (EGFR WT) | GI50 [2] [nM] | pIC50 (EGFRΔ19del/T790M/C797S) | pIC50 (IGF1R) | Structure (SMILES) | IC50 (A431; read-out: A431 IC50(nM)) [nM] | GI50 ([1]; read-out: EGFR Δ19del/T790M/C797S IC50, Table 2) [nM]
6.27 | 16 | 7.83 | 48.7 | 9.70 | 7.48 | COc1cc(Nc2ncc(Br)c(Nc3ccc(-c4nccs4)cc3P(C)(C)=O)n2)c(C)cc1N1CCC(N2CCN(C)CC2)CC1 [Compound K-019, (2-((5-Bromo-2-((5-methoxy-2-methyl-4-(4-(4-methylpiperazin-1-yl)piperidin-1-yl)phenyl)amino)pyrimidin-4-yl)amino)-5-(thiazol-2-yl)phenyl)dimethylphosphine oxide] | – | –
6.22 | 4.5 | – | 107 | 9.52 | 7.27 | CCc1cc(Nc2ncc(Br)c(Nc3ccc(-c4cnn(C)c4)cc3P(C)(C)=O)n2)c(OC)cc1N1CCC(N2CCN(C)CC2)CC1 [Compound 3, (2-((5-Bromo-2-((5-ethyl-2-methoxy-4-(4-(4-methylpiperazin-1-yl)piperidin-1-yl)phenyl)amino)pyrimidin-4-yl)amino)-5-(1-methyl-1hydro-pyrazol-4-yl)phenyl)dimethylphosphine oxide] | – | –
6.25 | 5.4 | – | 141 | 9.40 | – | CCc1cc(Nc2ncc(Br)c(Nc3ccc(-c4ccco4)cc3P(C)(C)=O)n2)c(OC)cc1N1CCC(N2CCN(C)CC2)CC1 [Compound 16, (2-((5-Bromo-2-((5-ethyl-2-methoxy-4-(4-(4-methylpiperazin-1-yl)piperidin-1-yl)phenyl)amino)pyrimidin-4-yl)amino)-5-(furan-2-yl)phenyl)dimethylphosphine oxide] | – | –
6.22 | 49.9 | 7.22 | 836 | – | 7.36 | COc1cc(N2CCC(N3CCN(C)CC3)CC2)ccc1Nc1ncc(Cl)c(Nc2ccc(C)cc2P(C)(C)=O)n1 [compound 1, reference compound] | – | –
6.33 | 1.9 | – | 84.3 | 9.22 | 7.14 | CCc1cc(Nc2ncc(Br)c(Nc3ccc(-c4cnn(CC)c4)cc3P(C)(C)=O)n2)c(OC)cc1N1CCC(N2CCN(C)CC2)CC1 [Compound 4, (2-((5-Bromo-2-((5-ethyl-2-methoxy-4-(4-(4-methylpiperazin-1-yl)piperidin-1-yl)phenyl)amino)pyrimidin-4-yl)amino)-5-(1-ethyl-1hydro-pyrazol-4-yl)phenyl)dimethylphosphine oxide] | – | –
6.38 | 27.9 | – | 482 | – | – | CCn1cc(-c2cc(Nc3ncc(Br)c(Nc4ccc(-c5cc(C)n(C)n5)cc4P(C)(C)=O)n3)c(OC)cc2N2CCC(N3CCN(C)CC3)CC2)cn1 [Compound K-005, (2-((5-Bromo-2-((5-(1-ethyl-1H-pyrazol-4-yl)-2-methoxy-4-(4-(4-methylpiperazin-1-yl)piperidin-1-yl)phenyl)amino)pyrimidin-4-yl)amino)-5-(1,5-dimethyl-1H-pyrazol-3-yl)phenyl)dimethylphosphine oxide] | – | –
6.04 | 1 | – | 113 | – | – | COc1cn(-c2ccc(Nc3nc(Nc4cc(-c5cnn(C)c5)c(N5CCN(c6cccnc6)CC5)cc4OC)ncc3Br)c(P(C)(C)=O)c2)cn1 [Compound K-083, (2-((5-Bromo-2-((2-methoxy-5-(1-methyl-1H-pyrazol-4-yl)-4-(4-(pyridin-3-yl)Piperazin-1-yl)phenyl)amino)pyrimidin-4-yl)amino)-5-(4-methoxy-1H-imidazol-1-yl)phenyl)dimethylphosphine oxide] | – | –
5.90 | 11.4 | – | 2960 | – | – | COc1cnn(-c2ccc(Nc3nc(Nc4cc(-c5cnn(C)c5)c(N5CCN(C(C)=O)CC5)cc4OC)ncc3Br)c(P(C)(C)=O)c2)c1 [Compound K-082] | – | –

Structure (SMILES) | pIC50 (A431) | GI50 [1, 3] [nM] | pIC50 (EGFR WT) | GI50 [2] [nM] | pIC50 (EGFRΔ19del/T790M/C797S) | pIC50 (IGF1R) | IC50 (A431; read-out: A431 IC50(nM)) [nM] | GI50 ([1]; read-out: EGFR Δ19del/T790M/C797S IC50, Table 2) [nM]
COc1cc(N2CCC(N3CCN(C)CC3)CC2)ccc1Nc1ncc(Cl)c(Nc2ccccc2P(C)(C)=O)n1 [Brigatinib, reference compound] | – | – | – | 22.5 | – | 7.63 | 309 | 64.9
